Test results taken from paper PMC7044277 (Nature Communications, 2020).
Where “and” joins values, the source holds several entries; their conditions need not be identical. Identical values can stand only once.

Assays:
Assay type in all cases: cell-based
320 non-olfactory GPCRs [1] = target: T1, 320 non-olfactory GPCRs (Homo sapiens, UniProt Q15761); conditions: receptor NPY5R; replicate values, Fig_4g
T1 construct: expressed in transfected cells; host or cells: HTLA cells

320 non-olfactory GPCRs [2] = target: T2, 320 non-olfactory GPCRs (Homo sapiens, UniProt Q8IZF4)
T2 construct: expressed in transfected cells; host or cells: HTLA cells

320 non-olfactory GPCRs [3] = target: T3, 320 non-olfactory GPCRs (Homo sapiens, UniProt P43116); conditions: receptor PTGER2; replicate values, Fig_4g
T3 construct: expressed in transfected cells; host or cells: HTLA cells

320 non-olfactory GPCRs [4] = target: T4, 320 non-olfactory GPCRs (Homo sapiens, UniProt P25116)
T4 construct: expressed in transfected cells; host or cells: HTLA cells
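Throughout, for Fold of Basal: compound tested at 1 µM final concentration.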
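Throughout, for GPCRome agonism screen response: fold over basal response of each receptor without drug.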

T4 sequence (P25116 22-425): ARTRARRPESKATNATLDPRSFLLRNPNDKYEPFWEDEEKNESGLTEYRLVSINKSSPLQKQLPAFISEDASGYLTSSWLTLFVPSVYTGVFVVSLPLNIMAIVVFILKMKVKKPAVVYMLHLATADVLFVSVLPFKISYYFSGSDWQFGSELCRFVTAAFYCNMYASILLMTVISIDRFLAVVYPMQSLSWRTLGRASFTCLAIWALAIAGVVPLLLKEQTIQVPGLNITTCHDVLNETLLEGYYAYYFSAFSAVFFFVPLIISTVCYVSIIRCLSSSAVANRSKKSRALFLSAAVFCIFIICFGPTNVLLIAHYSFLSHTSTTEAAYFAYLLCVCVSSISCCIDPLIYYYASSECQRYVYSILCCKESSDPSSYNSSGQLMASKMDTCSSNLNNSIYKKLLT
T3 sequence (P43116 whole entry): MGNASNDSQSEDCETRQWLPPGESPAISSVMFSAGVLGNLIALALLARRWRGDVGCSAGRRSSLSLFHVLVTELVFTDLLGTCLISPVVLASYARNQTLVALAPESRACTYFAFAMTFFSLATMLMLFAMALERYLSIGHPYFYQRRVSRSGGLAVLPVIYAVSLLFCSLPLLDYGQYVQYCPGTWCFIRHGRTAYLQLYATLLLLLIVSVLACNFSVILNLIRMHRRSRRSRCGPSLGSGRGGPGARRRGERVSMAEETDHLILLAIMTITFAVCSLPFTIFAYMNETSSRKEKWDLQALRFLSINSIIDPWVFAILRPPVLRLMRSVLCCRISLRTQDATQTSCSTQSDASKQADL
T2 sequence (Q8IZF4 22-528): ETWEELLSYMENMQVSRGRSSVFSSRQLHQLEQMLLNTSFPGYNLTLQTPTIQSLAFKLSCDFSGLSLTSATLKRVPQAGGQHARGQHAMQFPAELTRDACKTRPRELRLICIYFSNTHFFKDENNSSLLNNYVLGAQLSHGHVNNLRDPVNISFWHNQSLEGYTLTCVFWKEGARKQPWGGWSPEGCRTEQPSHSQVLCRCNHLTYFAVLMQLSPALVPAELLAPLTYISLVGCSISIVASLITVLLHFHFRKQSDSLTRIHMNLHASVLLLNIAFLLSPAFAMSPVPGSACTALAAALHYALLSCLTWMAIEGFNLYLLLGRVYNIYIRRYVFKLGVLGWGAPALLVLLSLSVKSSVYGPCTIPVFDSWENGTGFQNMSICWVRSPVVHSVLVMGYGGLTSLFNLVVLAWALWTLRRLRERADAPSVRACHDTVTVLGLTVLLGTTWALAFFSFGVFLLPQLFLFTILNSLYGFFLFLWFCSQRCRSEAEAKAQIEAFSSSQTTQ
T1 sequence (Q15761 whole entry): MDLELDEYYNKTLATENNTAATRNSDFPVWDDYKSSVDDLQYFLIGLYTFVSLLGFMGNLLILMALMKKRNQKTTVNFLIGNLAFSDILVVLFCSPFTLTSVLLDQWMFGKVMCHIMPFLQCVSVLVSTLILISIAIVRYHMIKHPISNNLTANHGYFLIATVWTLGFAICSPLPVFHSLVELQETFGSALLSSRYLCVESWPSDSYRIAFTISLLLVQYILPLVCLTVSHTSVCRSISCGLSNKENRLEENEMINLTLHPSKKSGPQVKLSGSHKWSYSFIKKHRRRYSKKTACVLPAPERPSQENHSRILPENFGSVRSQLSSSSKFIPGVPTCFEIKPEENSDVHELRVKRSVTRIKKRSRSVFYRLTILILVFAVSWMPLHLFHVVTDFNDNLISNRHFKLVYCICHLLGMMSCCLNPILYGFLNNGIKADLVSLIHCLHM

In the case of CCOc1cccc2cc(C(C)NCC3(O)CCCCC3)oc12 (stereo not shown) [O4LE6], the “GPCRome agonism screen response” value (320 non-olfactory GPCRs [1]) is reported as 1.549 and 1.454 and 1.619 and 1.735, the “Fold of Basal” value (320 non-olfactory GPCRs [2]) is reported as 1.8988 and 1.9 and 1.379 and the “GPCRome agonism screen response” value (320 non-olfactory GPCRs [3]) is reported as 0.6203 and 0.7336 and 1.113 and 1.811. The “Fold of Basal” value (320 non-olfactory GPCRs [4]) was 0.906 and 0.8507 and 1.071 and 1.142.
